Laboratory results published in the supplement of paper PMC4862054.

Columns and labels:
Settings in all cases: incubation time: 72 h
[1] = test system: BT-474; experiment: normalised response (% of control), CellTiter-Glo; higher = more viable cells (100 = DMSO, 0 = benzethonium chloride kill control)
Summary of the method: (§1)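 Breast cancer cell lines were exposed for 72 h in 384-well plates to compound at 5 concentrations, 10-fold apart, covering a 10,000-fold range fixed for each compound. Plates were read for CellTox Green fluorescence and CellTiter-Glo luminescence and normalised to 0.1 % DMSO (100) and a positive kill control (0). Each value is the normalised signal at one concentration of the series.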

[2] = test system: BT-549; experiment: as above
Summary of the method: as §1

[3] = test system: CAL-120; experiment: as above
Summary of the method: as §1

[4] = test system: CAL-148; experiment: as above
Summary of the method: as §1

[5] = test system: CAL-51; experiment: as above
Summary of the method: as §1

[6] = test system: CAL-85-1; experiment: as above
Summary of the method: as §1

[7] = test system: DU-4475; experiment: as above
Summary of the method: as §1

[8] = test system: HCC1143; experiment: as above
Summary of the method: as §1

[9] = test system: HCC1599; experiment: as above
Summary of the method: as §1

[10] = test system: HCC1937; experiment: as above
Summary of the method: as §1

[11] = test system: HDQ-P1; experiment: as above
Summary of the method: as §1

[12] = test system: Hs578T; experiment: as above
Summary of the method: as §1

[13] = test system: MCF-10A; experiment: as above
Summary of the method: as §1

[14] = test system: MDA-MB-231; experiment: as above
Summary of the method: as §1

[15] = test system: MDA-MB-436; experiment: as above
Summary of the method: as §1

[16] = test system: MDA-MB-453; experiment: as above
Summary of the method: as §1

[17] = test system: MDA-MB-468; experiment: as above
Summary of the method: as §1

[18] = test system: MFM-223; experiment: as above
Summary of the method: as §1

[19] = test system: SK-BR-3; experiment: as above
Summary of the method: as §1

[20] = test system: BT-474; experiment: normalised viability (% of control), CellTiter-Blue; higher = more viable cells (100 = DMSO, 0 = benzethonium chloride kill control)
Description: (§2)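 DSRT, CellTiter-Blue viability, 72 h incubation. Signal is normalised to DMSO and benzethonium chloride controls. Value is the normalised response at dose 1.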

[21] = test system: BT-549; experiment: as above
Description: as §2

[22] = test system: CAL-120; experiment: as above
Description: as §2

[23] = test system: CAL-148; experiment: as above
Description: as §2

[24] = test system: CAL-51; experiment: as above
Description: as §2

[25] = test system: CAL-85-1; experiment: as above
Description: as §2

[26] = test system: DU-4475; experiment: as above
Description: as §2

[27] = test system: HCC1143; experiment: as above
Description: as §2

[28] = test system: HCC1599; experiment: as above
Description: as §2

[29] = test system: HCC1937; experiment: as above
Description: as §2

[30] = test system: HDQ-P1; experiment: as above
Description: as §2

[31] = test system: Hs578T; experiment: as above
Description: as §2

[32] = test system: MDA-MB-231; experiment: as above
Description: as §2

[33] = test system: MDA-MB-436; experiment: as above
Description: as §2

[34] = test system: MDA-MB-453; experiment: as above
Description: as §2

[35] = test system: MDA-MB-468; experiment: as above
Description: as §2

[36] = test system: MFM-223; experiment: as above
Description: as §2

[37] = test system: SK-BR-3; experiment: as above
Description: as §2

Compound | normalised response [1] | normalised response [2] | normalised response [3] | normalised response [4] | normalised response [5] | normalised response [6] | normalised response [7] | normalised response [8] | normalised response [9] | normalised response [10] | normalised response [11] | normalised response [12] | normalised response [13] | normalised response [14] | normalised response [15] | normalised response [16] | normalised response [17] | normalised response [18] | normalised response [19] | normalised viability [20] | normalised viability [21] | normalised viability [22] | normalised viability [23] | normalised viability [24] | normalised viability [25] | normalised viability [26] | normalised viability [27] | normalised viability [28] | normalised viability [29] | normalised viability [30] | normalised viability [31] | normalised viability [32] | normalised viability [33] | normalised viability [34] | normalised viability [35] | normalised viability [36] | normalised viability [37]
COc1ncc(-c2ccc3nccc(-c4ccnnc4)c3c2)cc1NS(=O)(=O)c1ccc(F)cc1F (0.1 nM) | 101% | 101% | 98.4% | 97.9% | 112% | 98.1% | 99.8% | 106% | 92.1% | 98.2% | 99.8% | 103% | 120% | 104% | 97.7% | 125% | 100% | 111% | 108% | 115% | 108% | 81% | 99.6% | 93.7% | 90.2% | 108% | 89.1% | 83.8% | 100% | 103% | 112% | 92% | 113% | 94.3% | 101% | 91.4% | 86.9%
C[C@@]1(C(=O)Nc2ccc(F)nc2)CCCN1c1nc(Nc2cc(C3CC3)n[nH]2)c2cccn2n1 (1 nM) | 93% | 95.9% | 87.5% | 83.3% | 95.1% | 93% | 95.2% | 89% | 90.4% | 88.7% | 91.2% | 95.3% | 77.6% | 94.2% | 83.9% | 91.9% | 93.6% | 87.7% | 87.3% | 99% | 88.2% | 90.9% | 97.1% | 99.6% | 92.9% | 105% | 92% | 102% | 118% | 95.4% | 104% | 115% | 122% | 98.1% | 107% | 96.1% | 101%
